Source: patent US20090233957A1, “(-)-BELOXEPIN AND METHODS FOR ITS SYNTHESIS AND USE” (priority 2008, published 2009)

Key:
[1] = biological target: T1, cloned human 5HT2B receptor (Homo sapiens, UniProt P41595); assay: 5HT2B receptor binding assay, [125I]DOI; settings: CHO membranes
T1 construct: expressed in transfected cells; host or cells: CHO cells
Description: For the 5HT2B receptor binding assay, [^125I](±)[…] (DOI) (0.2 nM) was incubated for 15 min at 37° C. with membranes prepared from Chinese hamster ovary cells heterologously expressing the cloned human 5HT2B receptor according to the method of Choi et al., 1994, FEBS Lett 352:393-399. Various concentrations of test compound were added and bound radioactivity was determined by scintillation counting. Non-specific binding was determined in the presence of 1.0 μM unlabeled DOI. The Ki value for the test compound was determined using standard methods.

[2] = test system: noradrenaline reuptake in synaptosomes from rat and primate brain; settings: published reports; cited from earlier work
[3] = biological target: T2, cloned human 5HT2C receptor (Homo sapiens, UniProt P28335); assay: 5HT2C functional assay, intracellular Ca2+ in CHO cells; format: cell-based
T2 construct: expressed in transfected cells; host or cells: CHO cells
T2 sequence (P28335 33-458): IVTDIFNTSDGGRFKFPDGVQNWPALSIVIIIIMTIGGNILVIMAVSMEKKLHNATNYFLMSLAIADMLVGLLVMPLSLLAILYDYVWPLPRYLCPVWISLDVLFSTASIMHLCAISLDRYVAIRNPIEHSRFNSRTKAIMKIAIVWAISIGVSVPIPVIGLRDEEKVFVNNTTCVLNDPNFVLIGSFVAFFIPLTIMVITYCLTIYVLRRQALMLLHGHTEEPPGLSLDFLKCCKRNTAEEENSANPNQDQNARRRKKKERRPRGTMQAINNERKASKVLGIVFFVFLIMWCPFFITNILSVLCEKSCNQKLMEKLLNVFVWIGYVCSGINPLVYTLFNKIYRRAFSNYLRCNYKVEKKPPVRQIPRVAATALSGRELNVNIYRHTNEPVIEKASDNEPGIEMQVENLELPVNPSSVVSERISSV
Description: (§1) Agonist effects at the 5HT2C receptor were assessed by incubation at 22° C. of a series of concentrations of test compound with intact CHO cells heterologously expressing the cloned human 5HT2C receptor and measuring intracellular [Ca^2+] by fluorimetry according to the method of Jerman et al., 2001, Eur. J. Pharmacol. 414:23-30. Antagonist effects were assessed by the ability of a series of concentrations of test compound to block the increase in intracellular [Ca^2+] that occurred in the presence of 3.0 nM serotonin under the same conditions. EC50 and IC50 values were determined using standard methods.

[4] = test system: human volunteers; settings: 25-400 mg, cited from earlier work
[5] = biological target: T3, 5HT2C receptor (Homo sapiens, UniProt P28335); settings: published report; cited from earlier work
T3 sequence (P28335 33-458): T2 sequence (P28335 33-458)

[6] = biological target: T4, human recombinant CYP2D6 (Homo sapiens, UniProt P10635); assay: CYP2D6 inhibition, MAMC substrate; format: in vitro ADME
T4 construct: purchased BD Bioscience
T4 sequence (P10635 whole entry): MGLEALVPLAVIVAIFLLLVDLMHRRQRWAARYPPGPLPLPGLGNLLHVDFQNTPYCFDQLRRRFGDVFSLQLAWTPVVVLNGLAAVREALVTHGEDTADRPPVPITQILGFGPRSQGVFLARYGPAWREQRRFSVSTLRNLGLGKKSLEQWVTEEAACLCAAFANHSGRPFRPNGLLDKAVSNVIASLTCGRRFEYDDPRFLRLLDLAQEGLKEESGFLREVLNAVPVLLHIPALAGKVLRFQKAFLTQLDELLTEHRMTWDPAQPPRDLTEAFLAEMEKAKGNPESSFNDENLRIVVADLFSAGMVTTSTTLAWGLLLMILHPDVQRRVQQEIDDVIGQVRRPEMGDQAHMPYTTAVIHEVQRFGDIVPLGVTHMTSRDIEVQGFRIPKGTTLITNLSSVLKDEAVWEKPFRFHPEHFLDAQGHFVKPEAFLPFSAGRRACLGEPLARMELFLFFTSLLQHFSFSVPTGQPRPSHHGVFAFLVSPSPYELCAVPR
Description: Protocol. […] The source of the enzyme was microsomes containing human recombinant CYP2D6 obtained from BD Bioscience. Conversion of MAMC to 7-hydroxy-4-(aminomethyl)coumarin was measured using a PerkinElmer Fusion with a 390 nm excitation filter and a 460 nm emission filter.

[7] = biological target: T2, cloned human 5HT2C receptor; assay: 5HT2C receptor binding assay, [3H]mesulergine; settings: CHO membranes
Description: For the 5HT2C receptor binding assay, [^3H]mesulergine (1.0 nM) was incubated for 60 min at 37° C. with membranes prepared from Chinese hamster ovary cells heterologously expressing the cloned human 5-HT2C receptor according to the method of Stam et al., 1994, Eur. J. Pharmacol. 269:339-348. Various concentrations of test compound were added and bound radioactivity was determined by scintillation counting. Non-specific binding was determined in the presence of 10 μM RS102221. The Ki value for the test compound was determined using standard methods.

[8] = test system: major depression; settings: human, in vivo; cited from earlier work
[9] = test system: noradrenergic, histaminergic and cholinergic receptors; settings: published report; cited from earlier work
[10] = test system: animal models of depression; settings: preclinical; cited from earlier work
[11] = biological target: T5, cloned human NE transporter (hNET) (Homo sapiens, UniProt P23975); assay: NE transporter binding assay, [3H]nisoxetine; settings: membranes of CHO cells expressing hNET; read-out: NET Ki
T5 construct: expressed in transfected cells; host or cells: CHO cells
T5 sequence (P23975 whole entry): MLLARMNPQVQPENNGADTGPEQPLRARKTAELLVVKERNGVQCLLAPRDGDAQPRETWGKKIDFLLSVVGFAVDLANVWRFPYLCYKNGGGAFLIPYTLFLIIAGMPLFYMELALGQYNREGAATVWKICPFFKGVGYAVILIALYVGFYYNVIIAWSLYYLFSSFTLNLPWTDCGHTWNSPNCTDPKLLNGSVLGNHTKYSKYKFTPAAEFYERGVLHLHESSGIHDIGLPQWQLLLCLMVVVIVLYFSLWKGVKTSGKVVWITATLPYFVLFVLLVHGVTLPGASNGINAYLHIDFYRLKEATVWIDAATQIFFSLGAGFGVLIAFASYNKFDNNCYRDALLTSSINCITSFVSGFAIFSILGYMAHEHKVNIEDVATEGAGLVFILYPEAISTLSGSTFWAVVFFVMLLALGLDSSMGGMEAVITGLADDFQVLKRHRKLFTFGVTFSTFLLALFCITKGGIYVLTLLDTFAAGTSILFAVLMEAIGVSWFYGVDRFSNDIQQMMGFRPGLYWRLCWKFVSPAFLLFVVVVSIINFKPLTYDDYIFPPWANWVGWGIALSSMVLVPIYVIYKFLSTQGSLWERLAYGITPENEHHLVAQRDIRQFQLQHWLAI
Description: Protocols. For the NE transporter binding assay, [^3H]nisoxetine (1.0 nM) was incubated with various concentrations of test compounds for 2 hours at 4° C. with membranes prepared from Chinese hamster ovary cells (CHO) cells heterologously expressing the cloned human NE transporter (hNET). Bound radioactivity was determined by scintillation spectroscopy.

[12] = biological target: T6, cloned human 5HT2A receptor (Homo sapiens, UniProt P28223); assay: 5HT2A receptor binding assay, [3H]ketanserin; settings: HEK-293 membranes
T6 construct: expressed in transfected cells; host or cells: HEK-293 cells
T6 sequence (P28223 whole entry): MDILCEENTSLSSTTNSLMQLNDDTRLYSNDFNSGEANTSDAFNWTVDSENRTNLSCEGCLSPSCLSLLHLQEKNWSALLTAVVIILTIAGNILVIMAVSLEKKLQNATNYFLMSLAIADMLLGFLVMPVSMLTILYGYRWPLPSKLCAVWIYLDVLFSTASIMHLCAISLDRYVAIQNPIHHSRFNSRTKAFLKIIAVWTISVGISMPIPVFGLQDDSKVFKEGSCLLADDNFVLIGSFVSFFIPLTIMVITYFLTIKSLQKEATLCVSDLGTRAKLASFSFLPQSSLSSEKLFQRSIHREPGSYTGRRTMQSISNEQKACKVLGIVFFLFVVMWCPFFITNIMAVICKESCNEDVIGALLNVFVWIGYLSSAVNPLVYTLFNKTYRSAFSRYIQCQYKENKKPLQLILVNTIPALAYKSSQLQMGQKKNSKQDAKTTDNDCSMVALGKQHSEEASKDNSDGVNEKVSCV
Description: For the 5HT2A receptor binding assay, [^3H]ketanserin (0.5 nM) was incubated for 60 min at 22° C. with membranes prepared from HEK-293 cells heterologously expressing the cloned human 5-HT2A receptor according to the method of Bonhaus et al., 1995, Brit. J. Pharmacol. 115:622-628. Various concentrations of test compound were added and bound radioactivity was determined by scintillation counting. Non-specific binding was determined in the presence of 1.0 μM unlabeled ketanserin. The Ki value for the test compound was determined using standard methods.

[13] = biological target: T6, cloned human 5HT2A receptor; assay: 5HT2A functional assay, intracellular Ca2+ in HEK-293 cells; format: cell-based
Description: as §1, with “5HT2A” for “5HT2C”, “HEK-293” for “CHO”, “414:23-30).” for “414:23-30.”

[14] = in vivo; cited from earlier work
[15] = biological target: T1, cloned human 5HT2B receptor; assay: 5HT2B functional assay, intracellular Ca2+ in CHO cells; format: cell-based
Description: as §1, with “5HT2B” for “5HT2C”, “Porter” for “Jerman”, “1991, Brit.” for “2001, Eur.”, “128:13-20.” for “414:23-30.”, “0.3” for “3.0”

[16] = single doses of 10 to 500 mg; cited from earlier work
[17] = cited from earlier work
[18] = test system: patients hospitalized for depression; settings: phase IIA; cited from earlier work
[19] = antagonist mode, vs 3.0 nM serotonin

T1 sequence (P41595 whole entry): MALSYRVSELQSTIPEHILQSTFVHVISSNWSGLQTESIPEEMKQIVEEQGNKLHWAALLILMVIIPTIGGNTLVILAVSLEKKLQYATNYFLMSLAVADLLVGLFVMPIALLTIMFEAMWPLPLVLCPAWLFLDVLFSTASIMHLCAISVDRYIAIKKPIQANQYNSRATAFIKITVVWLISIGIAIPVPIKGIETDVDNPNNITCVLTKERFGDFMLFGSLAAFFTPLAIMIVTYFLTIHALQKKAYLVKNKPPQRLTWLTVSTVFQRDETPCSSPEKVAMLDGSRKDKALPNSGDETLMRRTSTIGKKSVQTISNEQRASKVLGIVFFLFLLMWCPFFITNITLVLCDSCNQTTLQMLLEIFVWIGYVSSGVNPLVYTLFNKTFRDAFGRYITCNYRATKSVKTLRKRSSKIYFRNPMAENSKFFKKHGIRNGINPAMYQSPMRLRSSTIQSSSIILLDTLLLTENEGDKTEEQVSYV

Which Ki [1] does the source give for `Cc1cccc2c1Oc1ccccc1C1(O)CCN(C)CC21` (racemic) [(±)-beloxepin, cis-1,2,3,4,4a,13b-hexahydro-2,10-dimethyldiben-[2,3:6,7]oxepino[4,5c]pyridine-4a-ol]] here?
The Ki was 1000 nM.

What about the “less affinity for other monoamine carriers (serotonin and dopamine transporters) than for noradrenaline reuptake” value [2] of the same compound?
Its value is “greater than 100 fold”.

And the “5HT2C functional activity type” value [3]?
Its value is “antagonist”.

And the IC50 [3, 19]?
The IC50 was > 10000 nM.

And the “effect on REM sleep” value ([4]; acutely and sub-chronically)?
Its value is “dose-dependently prolonged REM latency”.

What about the “side effects” value [4] of the same compound?
The value was “No sedation or other side effects were observed”.

What about the “affinity for the 5HT2C receptor” value [5] of the same compound?
Its value is “modest affinity”.

And the IC50 [6]?
Its IC50 is 536 nM.

What about the Ki [7] of the same compound?
The Ki was 830 nM.

What about the “efficacy in major depression” value [8] of the same compound?
Its value is “insufficient efficacy”.

And the “affinity for noradrenergic, histaminergic and cholinergic receptors” value [9]?
Its value is “no or very weak affinity”.

What about the “antidepressant properties” value [10] of the same compound?
The value was “offsetting acquired immobility behavior, reserpine-induced hypothermia, and conditioned avoidance behavior”.

And the “side effects” value [10]?
The value was “did not cause sedation, motor impairment or other untoward side effects”.

And the Ki [11]?
The Ki was 700 nM.

What about the Ki [12] of the same compound?
The Ki was 440 nM.

And the “5HT2A functional activity type” value [13]?
The value was “antagonist”.

What about the IC50 [13, 19] of the same compound?
The IC50 was 5200 nM.

And the logBB [14]?
The logBB was 0.82.

And the “5HT2B functional activity type” value [15]?
The value was “antagonist”.

And the IC50 ([15]; antagonist mode, vs 0.3 nM serotonin)?
The IC50 was > 10000 nM.

What about the tmax [16] of the same compound?
Its tmax is “one to four”.

And the “tmax, steady state” value ([17]; doses of 50 to 800 mg, healthy subjects)?
Its value is 1.17 h.

What about the “adverse effects” value ([17]; healthy volunteers, up to 800 mg/day) of the same compound?
Its value is “No important adverse effects were observed”.

And the “fraction of patients with a moderate to good response (HAMD score reduction)” value [18]?
Its value is “⅔”.
